From US10058559B2, “Treatment or prevention of an intestinal disease or disorder” (The United States of America, as represented by the …, priority 2014, dated 2018)
Read-outs that look alike come from different tables or passages of the source.

Key:
[1] = in vivo; cited from earlier work
[2] = test system: 187 kinases; details: cited from earlier work
[3] = test system: LRRK2 Ser910 and Ser935 phosphorylation; details: in vitro; cited from earlier work
[4] = test system: LRRK2 Ser910 and Ser935 phosphorylation; details: in peripheral tissues in vivo; cited from earlier work
[5] = test system: panel of 460 other kinases; details: cited from earlier work
[6] = target: LRRK2 kinase (Homo sapiens, UniProt Q5S007); details: previously reported; cited from earlier work
[7] = test system: panel of 136 other kinases; details: cited from earlier work
[8] = test system: LRRK2 phosphorylation; details: mice, 30 mg/kg to 50 mg/kg i.p., in vivo; cited from earlier work
[9] = cited from earlier work
[10] = test system: human BMDC derived from Crohn's disease peripheral blood; test: ZymD-induced TNF-alpha production in human BMDC derived from Crohn's disease peripheral blood; format: cell-based; details: human cells
[11] = test system: DSS-colitis; test: DSS (dextran-sulfate)-colitis in mice; format: in vivo
From the text: In initial studies to evaluate global LRRK2 function in bowel inflammation, LRRK2-Tg mice (as well as LRRK2 KO mice) were subjected to DSS (dextran-sulfate)-colitis. […] In contrast, DSS-colitis in LRRK2 KO mice was slightly less severe than in control mice (FIG. 2a and FIG. 2b). This latter result differs from that reported by Liu et al. who found increased severity of DSS colitis in LRRK2 KO mice. This discrepancy is likely due to differences in the control mice used in the two studies: the experiments described herein used control mice that had been back-crossed for 9 generations, were housed in the same facility and exposed to the same microbiota. These studies of DSS-colitis thus indicate that increased expression of LRRK2 leads to an increased inflammatory response in experimental colitis.

[12] = test system: BMDC from LRRK2 Tg mice; test: autophagy (Western blotting, LC3 puncta) in M. leprae- and ZymD-stimulated BMDC from LRRK2 Tg mice; format: cell-based
[13] = test system: BMDC from LRRK2 Tg mice; test: ZymD-induced cytokine production in BMDC from LRRK2 Tg mice; format: cell-based; details: for ZymD-induced cytokine production: FIG. 5a and 5b
From the text: Since several of the candidate susceptibility genes in IBD (e.g., NOD2 and […]) are likely to be causing disease via an abnormal innate immune response, it was reasoned that increased LRRK2 expression was leading to an enhanced inflammatory response initiated by a Pathogen Associated Molecular Patterns (PAMPs) in the gastrointestinal environment.
Furthermore, in rat microglia, LRRK2 inhibitors block TLR4-induced TNF-a and iNOS production. Based on these findings, whether LRRK2 inhibition can serve as a therapeutic target in IBD was investigated. First, ZymD-induced cytokine production in BMDC from LRRK2 Tg mice in the presence or absence of two LRRK2 inhibitors, LRRK2-IN-1 and CZC54252.

[14] = ZymD-induced, BMDC from LRRK2 Tg mice

Sequence of LRRK2 kinase (Q5S007 whole entry, species assumed): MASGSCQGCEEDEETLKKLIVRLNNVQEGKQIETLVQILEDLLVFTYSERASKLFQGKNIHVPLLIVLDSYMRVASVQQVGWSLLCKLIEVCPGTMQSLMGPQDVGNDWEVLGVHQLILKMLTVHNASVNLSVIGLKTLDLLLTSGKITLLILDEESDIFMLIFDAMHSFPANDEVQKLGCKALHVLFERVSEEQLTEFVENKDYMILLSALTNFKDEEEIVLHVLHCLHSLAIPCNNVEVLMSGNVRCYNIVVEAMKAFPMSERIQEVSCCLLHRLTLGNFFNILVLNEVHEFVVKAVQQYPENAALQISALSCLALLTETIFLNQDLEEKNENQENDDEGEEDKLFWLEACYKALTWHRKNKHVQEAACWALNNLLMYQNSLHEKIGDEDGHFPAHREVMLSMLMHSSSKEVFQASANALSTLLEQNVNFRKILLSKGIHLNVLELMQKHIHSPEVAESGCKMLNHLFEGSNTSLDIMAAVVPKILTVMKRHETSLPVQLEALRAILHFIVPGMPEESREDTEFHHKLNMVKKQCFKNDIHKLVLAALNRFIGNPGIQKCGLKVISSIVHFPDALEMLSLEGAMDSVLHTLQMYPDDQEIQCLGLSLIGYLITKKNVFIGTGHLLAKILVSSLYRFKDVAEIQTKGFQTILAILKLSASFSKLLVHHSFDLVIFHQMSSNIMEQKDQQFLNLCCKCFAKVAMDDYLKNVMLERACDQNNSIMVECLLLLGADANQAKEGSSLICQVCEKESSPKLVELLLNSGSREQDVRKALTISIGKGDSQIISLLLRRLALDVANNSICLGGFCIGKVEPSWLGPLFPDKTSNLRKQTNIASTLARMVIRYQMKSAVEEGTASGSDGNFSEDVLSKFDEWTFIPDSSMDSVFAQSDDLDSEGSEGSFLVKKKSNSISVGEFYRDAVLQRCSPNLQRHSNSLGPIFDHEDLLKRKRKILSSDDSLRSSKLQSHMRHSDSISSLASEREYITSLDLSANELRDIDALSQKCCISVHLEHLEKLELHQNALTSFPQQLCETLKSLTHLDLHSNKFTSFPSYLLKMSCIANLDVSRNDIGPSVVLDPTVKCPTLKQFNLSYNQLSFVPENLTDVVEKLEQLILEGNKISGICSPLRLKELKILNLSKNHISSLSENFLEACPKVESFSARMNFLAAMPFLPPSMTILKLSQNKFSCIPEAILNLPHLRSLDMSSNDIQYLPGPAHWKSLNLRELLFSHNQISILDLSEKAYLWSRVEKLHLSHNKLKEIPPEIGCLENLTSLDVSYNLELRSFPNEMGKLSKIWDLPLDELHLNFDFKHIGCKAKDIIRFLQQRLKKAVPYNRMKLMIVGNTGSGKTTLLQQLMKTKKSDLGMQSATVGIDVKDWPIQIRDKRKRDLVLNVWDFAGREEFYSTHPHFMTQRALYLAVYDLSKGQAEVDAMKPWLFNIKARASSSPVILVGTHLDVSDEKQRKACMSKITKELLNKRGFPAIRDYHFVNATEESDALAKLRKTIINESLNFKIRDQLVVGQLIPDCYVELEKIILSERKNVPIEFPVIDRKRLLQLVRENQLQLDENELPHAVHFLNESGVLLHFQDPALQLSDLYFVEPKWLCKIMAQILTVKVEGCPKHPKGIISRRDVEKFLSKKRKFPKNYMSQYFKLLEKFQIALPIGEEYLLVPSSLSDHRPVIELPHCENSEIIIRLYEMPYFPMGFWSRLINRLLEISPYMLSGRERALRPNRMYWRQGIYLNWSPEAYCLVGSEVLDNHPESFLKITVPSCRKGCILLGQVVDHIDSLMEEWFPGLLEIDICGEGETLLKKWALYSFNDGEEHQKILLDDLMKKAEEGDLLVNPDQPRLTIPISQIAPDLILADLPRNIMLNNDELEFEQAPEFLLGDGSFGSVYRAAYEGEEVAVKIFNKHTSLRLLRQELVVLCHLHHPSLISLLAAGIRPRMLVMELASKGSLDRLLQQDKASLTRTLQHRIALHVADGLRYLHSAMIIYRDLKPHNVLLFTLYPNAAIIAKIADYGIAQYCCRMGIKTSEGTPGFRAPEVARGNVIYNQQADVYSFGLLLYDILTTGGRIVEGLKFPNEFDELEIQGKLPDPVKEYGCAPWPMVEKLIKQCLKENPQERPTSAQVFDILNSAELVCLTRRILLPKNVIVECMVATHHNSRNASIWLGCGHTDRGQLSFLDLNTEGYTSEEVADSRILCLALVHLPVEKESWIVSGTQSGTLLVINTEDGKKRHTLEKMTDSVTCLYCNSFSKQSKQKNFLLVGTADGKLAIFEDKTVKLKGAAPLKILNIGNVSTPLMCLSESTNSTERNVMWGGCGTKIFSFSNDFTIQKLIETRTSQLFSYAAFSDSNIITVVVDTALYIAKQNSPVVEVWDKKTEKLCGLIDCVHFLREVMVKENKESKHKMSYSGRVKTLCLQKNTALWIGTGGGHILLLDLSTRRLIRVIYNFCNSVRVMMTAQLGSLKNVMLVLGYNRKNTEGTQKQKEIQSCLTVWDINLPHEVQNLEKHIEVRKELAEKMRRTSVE

CCNc1nc(Nc2cc(F)c(C(=O)N3CCOCC3)cc2OC)ncc1C(F)(F)F [GNE-7915, (4-((4-(ethylamino)-5-(trifluoromethyl)pyrimidin-2-yl)amino)-2-fluoro-5-methoxyphenyl)(morpholino)methanone]
brain penetration [1]: brain-penetrant
selectivity (kinases) [2]: 1/187

O=C(Nc1cccnc1)c1cc(-c2ccnc(F)c2)ccc1OCc1ccccc1 [GSK2578215A, 5-(2-Fluoro-4-pyridinyl)-2-(phenylmethoxy)-N-3-pyridinylbenzamide]
Ser910 and Ser935 phosphorylation [3]: blocks
Ser910 and Ser935 phosphorylation [4]: blocks
selectivity for LRRK2 against a panel of 460 other kinases [5]: displays selectivity for LRRK2
brain penetration [1]: brain penetrant

O=C1Nc2ccc(I)cc2/C1=C/c1cc(Br)c(O)c(Br)c1 [GW5074]
inhibitory activities of LRRK2 kinase [6]: inhibitory activities

O=S(=O)(NCCNC/C=C/c1ccc(Br)cc1)c1cccc2cnccc12 [H-89]
inhibitory activities of LRRK2 kinase [6]: inhibitory activities

CNc1nc(Nc2ccc(C(=O)N3CCOCC3)cc2OC)ncc1Cl [HG-10-102-01, (4-(5-Chloro-4-(methylamino)pyrimidin-2-ylamino)-3-methoxyphenyl)(morpholino)methanone]
activity toward a panel of 136 other kinases [7]: little activity
blood-brain-barrier crossing for LRRK2 phosphorylation inhibition [8]: can cross the blood-brain-barrier
cell permeability [9]: cell-permeable

O=C1Nc2ccccc2/C1=C1/Nc2ccccc2/C1=N\O [Indirubin-3-monoxime]
inhibitory activities of LRRK2 kinase [6]: inhibitory activities

COc1cc(C(=O)N2CCC(N3CCN(C)CC3)CC2)ccc1Nc1ncc2c(n1)N(C)c1ccccc1C(=O)N2C [LRRK2-IN-1, 5,11-Dihydro-2-[[2-methoxy-4-[[4-(4-methyl-1-piperazinyl)-1-piperidinyl]carbonyl]phenyl]amino]-5,11-dimethyl-6H-pyrimido[4,5-b][1,4]benzodiazepin-6-one]
concentration required to suppress cytokine production [10]: 5 µM
DSS-colitis severity ([11]; LRRK2-Tg mice): amelioration
DSS-colitis severity ([11]; wild-type mice (so in the source)): ameliorate
autophagy (Western blotting and quantitation of LC3 puncta) [12]: reversed inhibition of autophagy
ZymD-induced cytokine production ([13]; BMDC from LRRK2 Tg mice): greatly reduced
inhibition of TNF-alpha, dose dependence [13, 14]: dose dependent
production of pro-inflammatory cytokine mRNAs (TNF-alpha, TL1A, IL-23p19, IL-6 and IL-1beta mRNAs) [13, 14]: suppressed

COc1cc(N2CCC(N3CCN(C)CC3)CC2)ccc1Nc1ncc(Cl)c(Nc2ccccc2S(=O)(=O)C(C)C)n1 [TAE684]
inhibitory activities of LRRK2 kinase [6]: inhibitory activities

N-[-[[5-Chloro-2-[[2-methoxy-4-(4-morpholinyl)phenyl]amino]-4-pyrimidinyl]amino]phenyl]methanesulfonamide hydrochloride [CZC54252]
inhibition of TNF-alpha, dose dependence [13]: dose dependent
ZymD-induced cytokine production ([13]; BMDC from LRRK2 Tg mice): greatly reduced
production of pro-inflammatory cytokine mRNAs (TNF-alpha, TL1A, IL-23p19, IL-6 and IL-1beta mRNAs) [13, 14]: suppressed
